Experimental data published in US20250221966A1, “RXFP1 AGONISTS” (BRISTOL-MYERS SQUIBB COMPANY, priority 2021, published 2025).

biological target: T1, human RXFP1 (Homo sapiens, UniProt Q9HBX9); test: RXFP1 cAMP assay (hRXFP1 HEK293 cAMP assay, HTRF); format: cell-based; details: HEK293 cells stably expressing human RXFP1, 30 min at room temperature, read-out: cAMP hRXFP1 HEK293 Assay EC50
T1 construct: expressed in transfected cells
T1 sequence (Q9HBX9 1-757): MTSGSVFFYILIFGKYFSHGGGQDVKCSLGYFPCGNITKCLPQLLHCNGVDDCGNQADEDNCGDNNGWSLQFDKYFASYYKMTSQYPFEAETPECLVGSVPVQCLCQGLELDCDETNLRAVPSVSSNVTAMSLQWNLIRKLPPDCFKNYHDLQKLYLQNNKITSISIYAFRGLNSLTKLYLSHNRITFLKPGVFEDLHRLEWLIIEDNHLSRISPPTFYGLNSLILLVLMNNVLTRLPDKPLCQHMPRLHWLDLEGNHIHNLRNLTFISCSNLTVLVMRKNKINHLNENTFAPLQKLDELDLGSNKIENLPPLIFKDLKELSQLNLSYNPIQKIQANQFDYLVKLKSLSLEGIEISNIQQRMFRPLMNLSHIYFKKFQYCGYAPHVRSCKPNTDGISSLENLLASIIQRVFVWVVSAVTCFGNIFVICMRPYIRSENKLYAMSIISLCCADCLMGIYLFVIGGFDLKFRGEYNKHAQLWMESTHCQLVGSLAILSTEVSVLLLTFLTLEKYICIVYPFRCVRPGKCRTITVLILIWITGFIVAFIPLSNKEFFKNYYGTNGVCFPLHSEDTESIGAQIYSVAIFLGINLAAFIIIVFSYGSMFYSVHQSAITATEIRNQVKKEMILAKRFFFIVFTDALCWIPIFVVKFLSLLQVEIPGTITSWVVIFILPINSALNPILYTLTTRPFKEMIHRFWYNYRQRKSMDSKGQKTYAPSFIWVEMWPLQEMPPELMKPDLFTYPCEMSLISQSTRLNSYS
Summary of the method: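 HEK293 cells stably expressing human RXFP1 were suspended in HBSS (Ca/Mg) with 20 mM HEPES, 0.05% BSA and 0.5 mM IBMX, then treated with compounds (0.010 nM–50 μM, 2% DMSO final) for 30 min at room temperature. Intracellular cAMP was measured by HTRF, and potency was derived from 4-parameter logistic fits.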

| SMILES | EC50 [nM] |
| --- | --- |
| COCCOc1ccc(C2=NOC3COCC23)cc1C(=O)N[C@H]1[C@@H](C(=O)Nc2ccc(F)c(C(F)(F)F)c2)[C@H]2CC[C@@H]1/C2=C\C1CC1 (single isomer, unassigned) [compound 644] | 238 |
| COc1ccc([C@@]2(O)CO[C@@H]3[C@@H](O)CO[C@@H]32)cc1C(=O)N[C@H]1[C@@H](C(=O)Nc2ccc(F)c(C(F)(F)F)c2)[C@H]2CC[C@@H]1/C2=C\C1CC1 [compound 700] | 1050 |
| COc1ccc(C2=NOC3CN(C(=O)OC(C)(C)C)CC23)cc1C(=O)N[C@H]1[C@@H](C(=O)Nc2ccc(F)c(C(F)(F)F)c2)[C@H]2CC[C@@H]1/C2=C\C1CC1 (mixture of isomers) [Example 434, tert-butyl 3-(3-(((1R,2R,3S,4R,Z)-7-(cyclopropylmethylene)-3-((4-fluoro-3-(trifluoromethyl)phenyl)carbamoyl)bicyclo[2.2.1]heptan-2-yl)carbamoyl)-4-methoxyphenyl)-3a,4,6,6a-tetrahydro-5H-pyrrolo[3,4-d]isoxazole-5-carboxylate] | 24 |
| COc1ccc(-c2cc(C(=O)O)ccc2F)cc1C(=O)N[C@H]1[C@@H](CNc2ccc(F)c(C(F)(F)F)c2)[C@H]2CC[C@@H]1/C2=C\C1CC1 [Example 258, 3′-(((1R,2R,3R,4R,Z)-7-(cyclopropylmethylene)-3-(((4-fluoro-3-(trifluoromethyl)phenyl)amino)methyl)bicyclo[2.2.1]heptan-2-yl)carbamoyl)-6-fluoro-4′-methoxy-[1,1′-biphenyl]-3-carboxylic acid] | 283 |
| COc1ccc(-c2cc(C(CC(=O)O)C(F)(F)F)ccc2F)cc1C(=O)N[C@H]1[C@@H](C(=O)Nc2ccc(F)c(C(F)(F)F)c2)[C@H]2CC[C@@H]1/C2=C\C1CC1 (stereo partly drawn) [compound 873] | 3.3 |
| COc1ccc(C2=NOC(C(C)O)C2)cc1C(=O)N[C@H]1[C@@H](C(=O)Nc2ccc(F)c(C(F)(F)F)c2)[C@H]2CC[C@@H]1/C2=C\C1CC1 (single isomer, unassigned) [compound 554] | 37.6 |
| COc1ccc(-c2cc(C(=O)O)ccc2F)cc1C(=O)N[C@@H]1C2CCC(/C2=C/C2CC2)[C@@H]1C(=O)Nc1cccc(-c2csnn2)c1 (stereo partly drawn) [compound 271] | 664 |
| COc1cc(F)c(F)cc1C(=O)N[C@@H]1C2CCC(/C2=C/c2cnn(Cc3ccccc3)c2)[C@@H]1C(=O)Nc1ccc(F)c(C(F)(F)F)c1 (stereo partly drawn) [compound 61] | 570 |
| COc1c(F)cc(-c2cnc3n2CC(O)CC3)cc1C(=O)N[C@H]1[C@@H](C(=O)Nc2ccc(F)c(C(F)(F)F)c2)[C@H]2CC[C@@H]1/C2=C\C1CC1 (stereo partly drawn) [compound 753] | 3.3 |
| COc1ccc(C2=NOC3COCC23)cc1C(=O)N[C@H]1[C@@H](C(=O)Nc2ccc(F)c(OC(F)(F)F)c2)[C@H]2CC[C@@H]1/C2=C\C1CC1 (stereo partly drawn) [compound 761] | 1.9 |
| COCCOC1(C2CC(c3ccc(OC)c(C(=O)N[C@H]4[C@@H](C(=O)Nc5ccc(F)c(C(F)(F)F)c5)[C@H]5CC[C@@H]4/C5=C\C4CC4)c3)=NO2)CC1 (single isomer, unassigned) [compound 558] | 44.3 |
| COc1ccc(C2=NOC3COCC23)cc1C(=O)N[C@H]1[C@@H](C(=O)NCc2ccccc2C2CC2)[C@H]2CC[C@@H]1/C2=C\C1CC1 (stereo partly drawn) [compound 606] | 121 |
| COc1ccc(Cl)cc1C(=O)N[C@@H]1C2CCC(C2=C(C)C)[C@@H]1C(=O)Nc1ccc(F)c(C(F)(F)F)c1 (stereo partly drawn) [compound 109] | 390 |
| COc1ccc(Br)cc1C(=O)N[C@@H]1C2CCC(/C2=C/c2ccccc2)[C@@H]1C(=O)Nc1ccc(F)c(C(F)(F)F)c1 (stereo partly drawn) [Example 77] | 330 |
| COc1ccc(-c2cc(-c3nnn[nH]3)ccc2F)cc1C(=O)N[C@@H]1C2CCC(C2=C(C)C)[C@@H]1C(=O)Nc1ccc(F)c(C(F)(F)F)c1 (stereo partly drawn) [Example 108] | 330 |
| COc1ccc(-c2cccc3c2CN(C(=O)C(C)(C)O)C3)cc1C(=O)N[C@@H]1C2CCC(/C2=C/C2CC2)[C@@H]1C(=O)Nc1ccc(F)c(C(F)(F)F)c1 (stereo partly drawn) [compound 889] | 8.5 |
| COc1ccc(-c2cc(C(OC(=O)NC3CCC3)C(=O)O)ccc2F)cc1C(=O)N[C@H]1[C@@H](C(=O)Nc2ccc(F)c(C(F)(F)F)c2)[C@H]2CC[C@@H]1/C2=C\C1CCCC1 (stereo partly drawn) [compound 936] | 1.4 |
| COc1ccc(-c2cc([C@H](OC(=O)NC3CC3)C(F)(F)F)ccc2F)cc1C(=O)N[C@H]1[C@@H](C(=O)Nc2ccc(F)c(C(F)(F)F)c2)[C@H]2CC[C@@H]1/C2=C\C1CCCC1 [compound 927] | 0.4 |
| COc1ccc(C2=NOC3CC(O)(C(F)(F)F)CC23)cc1C(=O)N[C@H]1[C@@H](C(=O)NCC(C)(C)C)[C@H]2CC[C@@H]1/C2=C\C1CC1 (stereo partly drawn) [compound 862] | 3.4 |
| COc1ccc(-c2cc(C(OC(=O)Nc3ccccc3)C(F)(F)F)ccc2F)cc1C(=O)N[C@@H]1C2CCC(/C2=C/C2CC2)[C@@H]1C(=O)Nc1ccc(F)c(C(F)(F)F)c1 (single isomer, unassigned) [compound 224] | 2 |

| SMILES | EC50 [nM] |
| --- | --- |
| O=C(N[C@H]1[C@@H](C(=O)Nc2ccc(F)c(C(F)(F)F)c2)[C@H]2CC[C@@H]1/C2=C\C1CC1)c1cc(C2=NOC3COCC23)ccc1OCCCF (stereo partly drawn) [compound 786] | 4 |
| COc1ccc(-c2cc(C3=NOC(C(=O)O)C3)ccc2F)cc1C(=O)N[C@H]1[C@@H](C(=O)Nc2ccc(F)c(C(F)(F)F)c2)[C@H]2CC[C@@H]1/C2=C\C1CCCC1 (stereo partly drawn) [compound 946] | 0.9 |
| COc1ccc(C2=NOC3CC(CO)CC23)cc1C(=O)N[C@H]1[C@@H](C(=O)Nc2ccc(F)c(C(F)(F)F)c2)[C@H]2CC[C@@H]1/C2=C\C(F)(F)F (stereo partly drawn) [compound 533] | 23.4 |
| COc1ccc(C2=NOC3COCC23)cc1C(=O)N[C@H]1[C@@H](C(=O)N[C@@H](C)C(C)(C)C)[C@H]2CC[C@@H]1/C2=C\C1CC1 (stereo partly drawn) [compound 541] | 30 |
| COC(=O)N1CCC=C(c2ccc(OC)c(C(=O)N[C@@H]3C4CCC(C4=C(C)C)[C@@H]3C(=O)Nc3ccc(F)c(C(F)(F)F)c3)c2)C1 (stereo partly drawn) [Example 134] | 1400 |
| COc1ccc(C2=NOC(CC(=O)O)C2)cc1C(=O)N[C@@H]1C2CCC(/C2=C/C2CCC2)[C@@H]1C(=O)Nc1ccc(F)c(C(F)(F)F)c1 (stereo partly drawn) [compound 393] | 73 |
| COc1ccc(-c2cnc(C)nc2)cc1C(=O)N[C@H]1[C@@H](C(=O)Nc2ccc(F)c(C(F)(F)F)c2)[C@H]2CC[C@@H]1C2=C(C)C [compound 98] | 510 |
| COc1ccc(-c2cc(C(NC(=O)C3CCOCC3)C(=O)O)ccc2F)cc1C(=O)N[C@H]1[C@@H](C(=O)Nc2ccc(F)c(C(F)(F)F)c2)[C@H]2CC[C@@H]1/C2=C\C(C)C (stereo partly drawn) [compound 942] | 1.3 |
| COc1ccc(-c2cc(C(C)CC(=O)O)ccc2F)cc1C(=O)N[C@H]1[C@@H](C(=O)Nc2ccc(F)c(C(F)(F)F)c2)[C@H]2CC[C@@H]1/C2=C\C1CC1 (stereo partly drawn) [compound 888] | 2.7 |
| COc1ccc(C2=NOC3COCC23)cc1C(=O)N[C@H]1[C@@H](C(=O)NCC2(C)CC2)[C@H]2CC[C@@H]1/C2=C\C1CC1 (stereo partly drawn) [compound 522] | 21.1 |
| COc1ccc(-c2cnc3cc(CO)ccn23)cc1C(=O)N[C@@H]1C2CCC(/C2=C/C2CC2)[C@@H]1C(=O)Nc1ccc(F)c(C(F)(F)F)c1 (stereo partly drawn) [compound 974] | 4.5 |
| COc1cc(F)c(F)cc1C(=O)N[C@@H]1C2CCC(/C2=C/C(=O)OC(C)(C)C)[C@@H]1C(=O)Nc1ccc(F)c(C(F)(F)F)c1 (stereo partly drawn) [compound 8] | 110 |
| COc1ccc(-c2cc(C(COC(=O)Nc3ccccc3)C(F)(F)F)ccc2F)cc1C(=O)N[C@H]1[C@@H](C(=O)Nc2ccc(F)c(C(F)(F)F)c2)[C@H]2CC[C@@H]1/C2=C\C1CC1 (stereo partly drawn) [compound 875] | 1.8 |
| COc1ccc(C2=NOC3COCC23)cc1C(=O)N[C@H]1[C@@H](C(=O)N[C@H](C)C2CCC2)[C@H]2CC[C@@H]1/C2=C\C1CC1 (stereo partly drawn) [compound 507] | 12.9 |
| COc1ccc(C2=NOC3CC(C(O)C(F)(F)F)CC23)cc1C(=O)N[C@H]1[C@@H](C(=O)Nc2ccc(F)c(C(F)(F)F)c2)[C@H]2CC[C@@H]1/C2=C\C1CC1 (stereo partly drawn) [compound 848] | 2.5 |
| COc1ccc(C2=NOC3COCC23)cc1C(=O)N[C@H]1[C@@H](C(=O)NC2(C#N)CCCC2)[C@H]2CC[C@@H]1/C2=C\C1CC1 (stereo partly drawn) [compound 476] | 6.1 |
| COc1ccc(-c2cc(C(N)C(=O)O)ccc2F)cc1C(=O)NC1[C@@H]2CC[C@@H](/C2=C/C2CC2)[C@@H]1C(=O)Nc1ccc(F)c(C(F)(F)F)c1 (stereo partly drawn) [compound 969] | 3.6 |
| COc1ccc(C2=NOC3CC(CO)CC23)cc1C(=O)N[C@@H]1C2CCC(/C2=C/C2CC2)[C@@H]1C(=O)Nc1ccc(F)c(C(F)(F)F)c1 (single isomer, unassigned) [compound 432] | 2 |
| CNC(=O)c1ccc(F)c(-c2ccc(OC)c(C(=O)N[C@@H]3C4CCC(/C4=C/C4CC4)[C@@H]3C(=O)Nc3ccc(F)c(C(F)(F)F)c3)c2)c1 (stereo partly drawn) [Example 166] | 11 |
